Reference: article PMC10349806 (Nature Communications, 2023)
Values joined by “and” are separate entries in the source; they are usually repeats but may differ in a detail not shown here. Identical values can stand only once.

Target: PfCRT^Dd2 (Plasmodium falciparum, UniProt Q9N623, A220S/I356T/K76T/M74I/N326S/N75E/Q271E/R371I)
Experiment: Drug uptake assay, X. laevis oocytes expressing PfCRT^Dd2
Type: cell-based
Conditions: for Kd: KS^CQ; for Vmax: CQ vs protons
Procedure: Oocytes were obtained as described previously. Briefly, adult (>2 years old) female X. laevis frogs (NASCO) were anesthetized in a cooled solution of ethyl 3-amino benzoate methanesulfonate (0.1%, w/v), followed by a surgical removal of parts of the ovary. The ovary lobes were carefully dissected and small pieces of oocytes were incubated in Ca^2+-free ND96 buffer (96 mM NaCl, 2 mM KCl, 1 mM MgCl2 buffered with 5 mM HEPES/NaOH, pH 7.5) supplemented with collagenase D (0.1%, w/v; Roche), BSA (0.5%, w/v), and 9 mm Na2HPO4 at 18 °C for 14-16 h while gentle shaking. After incubation, the oocytes were carefully washed several times with ND96 buffer (96 mM NaCl, 2 mM KCl, 1.8 mM CaCl2, 1 mM MgCl2 buffered with 5 mM HEPES/NaOH, pH 7.5) supplemented with 100 mg l^−1 gentamycin). Defolliculated and healthy-looking stage V-VI oocytes were manually selected for RNA microinjection. The RNA was generated as following: The codon-optimized sequences of PfCRT variants were cloned into the pSP64T expression vector. After vector linearization using the restriction endonucleases BamHI or SalI (New England Biolabs), transcription was performed using the in vitro SP6 mMessage mMachine Kit (Ambion)[34]. The obtained RNA was kept at −80 °C and diluted with nuclease-free water to a concentration of 0.6 μg μl^−1. Precision-bore glass capillary tubes (3.5-inch glass capillaries; Drummond Scientific Co.) were pulled on a vertical puller (P-87 Flaming/Brown micropipette puller, Sutter Instrument Co.), graduated, and placed on a microinjector (Nanoject II Auto-Nanoliter Injector, Drummond Scientific Co.). 50 nl of nuclease-free water alone (control oocytes) or 50 nl of 0.6 μg μl^−1 RNA were injected under stereomicroscopic control. Injected oocytes were incubated for 46–72 h at 18 °C with twice-daily buffer changes before usage in experiments.
Drug uptake assays were performed as described previously[21],[22],[24],[34]. […] The direction of radio-labeled drug transport is here from the mostly acidic extracellular solution (pH 4.5 or 6.0, as indicated) into the oocyte cytosol (pH ∼ 7.2), which corresponds to the efflux of drug from the acidic digestive vacuole (pH 5.2) into the parasite cytoplasm (pH 7.2). The topology of PfCRT in the oolemma is such that both the N- and C-terminus face the extracellular milieu[3],[22]. In the parasite, the N- and C-terminus face the lumen of the digestive vacuole. […] For determination of the amount of drug uptake for each oocyte, the reaction medium was removed and the oocytes were washed three times with 2 ml of ice-cold ND96 buffer. Each oocyte was individually transferred to a scintillation vial containing 5% sodium dodecyl sulfate (200 μl) for lysis. […] Oocytes that were injected with water instead of RNA were analyzed in parallel, representing the uptake of a drug by diffusion and/or endogenous permeation pathways. The resulting value represents the “background“ level of drug accumulation in oocytes (in-depth discussion in[22]). The specific PfCRT-mediated uptake was determined by subtracting the corresponding background value measured in water-injected oocytes from that of PfCRT-expressing oocytes. In all cases, at least three separate experiments were performed on oocytes from different frogs (biological replicate), and for each condition in an experiment, measurements were made from 10 oocytes per treatment. For pH 5.5, 6.0, and 6.5, ND96 was buffered with 5 mM MES/Tris base. For pH 4.5, 5 mM Homo-Pipes was used as a buffer and 5 mM HEPES for uptake at pH 7.0.

[1] = mixed (partial) model, mean ± SEM
[2] = PfCRTDd2, 50 µM CQ, 1 h, mean ± SEM

Sequence of PfCRT^Dd2 (Q9N623 whole entry A220S/I356T/K76T/M74I/N326S/N75E/Q271E/R371I): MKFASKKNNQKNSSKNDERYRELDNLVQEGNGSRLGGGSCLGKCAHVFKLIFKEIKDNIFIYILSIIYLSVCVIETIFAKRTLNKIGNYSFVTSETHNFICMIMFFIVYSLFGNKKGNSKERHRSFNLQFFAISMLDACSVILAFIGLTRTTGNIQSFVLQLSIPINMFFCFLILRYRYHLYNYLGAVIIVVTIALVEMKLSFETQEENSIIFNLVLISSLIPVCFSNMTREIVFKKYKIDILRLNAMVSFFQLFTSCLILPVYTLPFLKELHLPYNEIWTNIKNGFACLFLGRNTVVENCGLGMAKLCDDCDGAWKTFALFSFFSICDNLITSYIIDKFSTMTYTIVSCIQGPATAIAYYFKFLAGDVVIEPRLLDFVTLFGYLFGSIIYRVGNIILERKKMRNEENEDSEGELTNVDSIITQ

CCN(CC)CCCC(C)Nc1ccnc2cc(Cl)ccc12 (centres unmarked) [CQ, chloroquine]
v-1 pH 6.0 (500 µM CQ, Lineweaver-Burk): 0.05 (pmol oocyte-1 h-1)-1 | inflection point in the weakly acidic pH range (CQ transport vs pH): ~ 5.2 pH | PfCRTDd2 transport activity pH 4.5 (CQ uptake, X. laevis oocytes expressing PfCRTDd2, pH 4.5, individual replicates (Fig 6b)): 0.81 pmol oocyte-1 h-1 and 1.13 pmol oocyte-1 h-1 and 0.91 pmol oocyte-1 h-1 and 1.51 pmol oocyte-1 h-1 and 1.64 pmol oocyte-1 h-1 and 1.57 pmol oocyte-1 h-1 | PfCRTDd2 transport activity pH 4.5 (CQ uptake, X. laevis oocytes expressing PfCRTDd2, pH 4.5, individual replicates (source data Fig 1d left)): 0.89 pmol oocyte-1 h-1 and 0.81 pmol oocyte-1 h-1 and 1.13 pmol oocyte-1 h-1 and 0.91 pmol oocyte-1 h-1 and 1.51 pmol oocyte-1 h-1 and 1.64 pmol oocyte-1 h-1 | PfCRTDd2 transport activity pH 6.0 (CQ uptake, X. laevis oocytes expressing PfCRTDd2, pH 6.0, individual replicates (Fig 6b)): 3.69 pmol oocyte-1 h-1 and 3.79 pmol oocyte-1 h-1 and 3.00 pmol oocyte-1 h-1 and 3.40 pmol oocyte-1 h-1 and 3.90 pmol oocyte-1 h-1 and 6.11 pmol oocyte-1 h-1 and 4.28 pmol oocyte-1 h-1 and 5.58 pmol oocyte-1 h-1 and 6.47 pmol oocyte-1 h-1 and 3.37 pmol oocyte-1 h-1 and 3.28 pmol oocyte-1 h-1 and 4.53 pmol oocyte-1 h-1 and 3.68 pmol oocyte-1 h-1 and 5.95 pmol oocyte-1 h-1 and 11.50 pmol oocyte-1 h-1 and 6.00 pmol oocyte-1 h-1 and 4.23 pmol oocyte-1 h-1 and 6.19 pmol oocyte-1 h-1 and 4.62 pmol oocyte-1 h-1 and 6.53 pmol oocyte-1 h-1 | PfCRTDd2 transport activity pH 6.0 (CQ uptake, X. laevis oocytes expressing PfCRTDd2, pH 6.0, individual replicates (source data Fig 1d left)): 5.87 pmol oocyte-1 h-1 and 4.37 pmol oocyte-1 h-1 and 4.87 pmol oocyte-1 h-1 and 4.94 pmol oocyte-1 h-1 and 5.55 pmol oocyte-1 h-1 and 3.80 pmol oocyte-1 h-1 and 3.69 pmol oocyte-1 h-1 and 3.79 pmol oocyte-1 h-1 and 3.00 pmol oocyte-1 h-1 and 3.40 pmol oocyte-1 h-1 and 3.90 pmol oocyte-1 h-1 and 6.11 pmol oocyte-1 h-1 and 4.28 pmol oocyte-1 h-1 and 5.58 pmol oocyte-1 h-1 and 6.47 pmol oocyte-1 h-1 and 3.37 pmol oocyte-1 h-1 and 3.28 pmol oocyte-1 h-1 and 4.53 pmol oocyte-1 h-1 and 3.68 pmol oocyte-1 h-1 and 5.95 pmol oocyte-1 h-1 | PfCRTDd2 transport activity pH 4.5 with preincubation 1 h at pH 4.5 (CQ uptake, independent samples): 5.80 pmol oocyte-1 h-1 and 5.85 pmol oocyte-1 h-1 and 2.93 pmol oocyte-1 h-1 | PfCRTDd2 transport activity pH 4.5 without preincubation (CQ uptake, independent samples): 5.79 pmol oocyte-1 h-1 and 5.26 pmol oocyte-1 h-1 and 2.99 pmol oocyte-1 h-1 | Kd [1]: 320 ± 100 µM | Kd (noncompetitive (partial) model, called KM, mean ± SEM): 220 ± 25 µM | Activity at pH 4.5 [2]: 1.20 ± 0.10 pmol h-1 oocyte-1 | Activity at pH 6.0 [2]: 5.05 ± 0.23 pmol h-1 oocyte-1 | R-value (PfCRTDd2, CQ transport at pH 4.5 / pH 6.0): ~ 0.2 and 0.24 ± 0.01 | Vmax ± SEM (PfCRT^Dd2, pH 4.5): 14 ± 2 pmol h^−1 oocyte ^−1 | Vmax ± SEM (PfCRT^Dd2, pH 6.0): 32 ± 2 pmol h^−1 oocyte ^−1 | PfCRTDd2 R-value (R-value from transport activity at pH 4.5 and pH 6.0, individual replicates (source data Fig 1d left)): 0.23 and 0.27 and 0.25 | PfCRTDd2 R-value (R-value from transport activity at pH 4.5 and pH 6.0, oocytes expressing PfCRTDd2, source data Fig 1d left): 0.25 | pH of maximal CQ transport activity (bell-shaped curve, pH 4.5 to 7.0, 50 µM CQ): 6.2 ± 0.3 pH | CQ transport activity, oocytes pre-treated 1 h at pH 4.5 vs untreated (in words): no significant differences | Vmax [1]: 45 ± 9 pmol h^−1 oocyte^−1 | α (mixed (partial) model, factor by which KS values change when other substrate is bound): 0.53 ± 0.26 | β (mixed (partial) model, factor by which Vmax is affected by the inhibitor): 0.27 ± 0.06 | Vmax (noncompetitive (partial) model, mean ± SEM): 40 ± 4 pmol h^−1 oocyte^−1 | β (noncompetitive (partial) model, factor by which Vmax is affected by bound proton): 0.36 ± 0.02 | PfCRTDd2 transport activity pH 4.5 (pH 4.5, individual replicates (Fig 6a)): 0.82 pmol oocyte-1 h-1 and 2.03 pmol oocyte-1 h-1 and 1.25 pmol oocyte-1 h-1 and 0.75 pmol oocyte-1 h-1 and 1.02 pmol oocyte-1 h-1 and 0.89 pmol oocyte-1 h-1 and 0.81 pmol oocyte-1 h-1 and 1.13 pmol oocyte-1 h-1 and 0.91 pmol oocyte-1 h-1 and 1.51 pmol oocyte-1 h-1 and 1.64 pmol oocyte-1 h-1 and 1.57 pmol oocyte-1 h-1 and 1.05 pmol oocyte-1 h-1 and 1.43 pmol oocyte-1 h-1 | PfCRTDd2 transport activity pH 4.5 (pH 4.5, individual replicates, Fig 6b): 0.82 pmol oocyte-1 h-1 and 2.03 pmol oocyte-1 h-1 and 1.25 pmol oocyte-1 h-1 and 0.75 pmol oocyte-1 h-1 and 1.02 pmol oocyte-1 h-1 and 0.89 pmol oocyte-1 h-1 and 1.05 pmol oocyte-1 h-1 and 1.43 pmol oocyte-1 h-1 | PfCRTDd2 transport activity pH 4.5 (pH 4.5, oocytes expressing PfCRTDd2, individual replicate values, source data Fig 1d left): 1.57 pmol oocyte-1 h-1 | PfCRTDd2 transport activity pH 4.5 (pH 4.5, single replicates, Fig 1d left): 2.03 pmol oocyte-1 h-1 and 1.25 pmol oocyte-1 h-1 and 0.75 pmol oocyte-1 h-1 and 1.02 pmol oocyte-1 h-1 and 1.05 pmol oocyte-1 h-1 and 1.43 pmol oocyte-1 h-1 and 0.82 pmol oocyte-1 h-1 | PfCRTDd2 R-value (pH 4.5 vs pH 6.0, Fig 1d left): 0.27 and 0.30 and 0.19 and 0.23 and 0.17 and 0.15 | PfCRTDd2 transport activity pH 6.0 (pH 6.0, individual replicates, Fig 6b): 5.64 pmol oocyte-1 h-1 and 4.84 pmol oocyte-1 h-1 and 7.93 pmol oocyte-1 h-1 and 4.17 pmol oocyte-1 h-1 and 7.55 pmol oocyte-1 h-1 and 4.19 pmol oocyte-1 h-1 and 4.00 pmol oocyte-1 h-1 and 4.20 pmol oocyte-1 h-1 and 4.01 pmol oocyte-1 h-1 and 4.51 pmol oocyte-1 h-1 and 5.87 pmol oocyte-1 h-1 and 4.37 pmol oocyte-1 h-1 and 4.87 pmol oocyte-1 h-1 and 4.94 pmol oocyte-1 h-1 and 5.55 pmol oocyte-1 h-1 and 3.80 pmol oocyte-1 h-1 and 4.33 pmol oocyte-1 h-1 and 4.86 pmol oocyte-1 h-1 and 6.59 pmol oocyte-1 h-1 and 6.15 pmol oocyte-1 h-1 and 4.02 pmol oocyte-1 h-1 and 5.29 pmol oocyte-1 h-1 and 5.21 pmol oocyte-1 h-1 | PfCRTDd2 transport activity pH 6.0 (pH 6.0, oocytes expressing PfCRTDd2, individual replicate values, source data Fig 1d left): 11.50 pmol oocyte-1 h-1 and 6.00 pmol oocyte-1 h-1 and 4.23 pmol oocyte-1 h-1 and 6.19 pmol oocyte-1 h-1 and 4.62 pmol oocyte-1 h-1 and 6.53 pmol oocyte-1 h-1 | PfCRTDd2 transport activity pH 6.0 (pH 6.0, single replicates, Fig 1d left): 5.64 pmol oocyte-1 h-1 and 4.84 pmol oocyte-1 h-1 and 7.93 pmol oocyte-1 h-1 and 4.17 pmol oocyte-1 h-1 and 7.55 pmol oocyte-1 h-1 and 4.19 pmol oocyte-1 h-1 and 4.00 pmol oocyte-1 h-1 and 4.20 pmol oocyte-1 h-1 and 4.01 pmol oocyte-1 h-1 and 4.51 pmol oocyte-1 h-1 and 4.33 pmol oocyte-1 h-1 and 4.86 pmol oocyte-1 h-1 and 6.59 pmol oocyte-1 h-1 and 6.15 pmol oocyte-1 h-1 and 4.02 pmol oocyte-1 h-1 and 5.29 pmol oocyte-1 h-1 and 5.21 pmol oocyte-1 h-1 | PfCRTDd2 R-value (ratio of activity pH 4.5 / pH 6.0): 0.15 and 0.27 and 0.30 and 0.19 and 0.23 and 0.17 | PfCRTDd2 R-value (ratio of transport activity pH 4.5 to pH 6.0, individual replicates (Fig 6b)): 0.27 and 0.25 | PfCRTDd2 R-value (transport activity pH 4.5 relative to pH 6.0 (Fig 6a)): 0.15 and 0.27 and 0.30 and 0.19 and 0.23 and 0.25 and 0.17
